From patent publication US5576305A, “Intercellular adhesion mediators” (Cytel Corporation, priority 1995, dated 1996)

How the values were obtained:
rolling leukocytes = experiment: leukocyte rolling (histamine-induced recruitment of rolling leukocytes); type: in vivo, rat; conditions: FIG. 15, in words
recombinant E-selectin = experiment: inhibition of binding of HL-60 cells to recombinant E-selectin; type: cell-based; conditions: FIG. 13, concentration dependence, in words
selectin = experiment: inhibitory effect of oligosaccharides on selectin-mediated adhesion; type: cell-based; conditions: in words

CCO[C@@H]1O[C@H](CO)[C@H](O)[C@H](O[C@@H]2O[C@H](CO)[C@@H](O[C@@H]3O[C@H](CO)[C@H](O)[C@H](O[C@]4(C(=O)O)C[C@H](O)[C@@H](NC(C)=O)[C@H]([C@H](O)[C@H](O)CO)O4)[C@H]3O)[C@H](O)[C@H]2NC(C)=O)[C@H]1O [SLN, reference compound]
recruitment of rolling leukocytes / leukocyte rolling (rolling leukocytes): had no effect

CCOC1OC(CO)C(O)C(OC2OC(CO)C(OC3OC(CO)C(O)C(OC4(C(=O)O)CC(O)C(NC(C)=O)C(C(O)C(O)CO)O4)C3O)C(OC3OC(C)C(O)C(O)C3O)C2NC(C)=O)C1O [Z, Ethyl (sodium (5-acetamido-3,5-dideoxy-α-D-glycero-D-galacto-2-nonulopyanosylonate))-(2-3)-O-(β-D-galactopyranosyl)-(1-4)-O-((α-L-fucopyranosyl)-(1-3))-O-(2-acetamido-2-deoxy-β-D-glucopyranosyl)-(1-3)-O-β-D-galactopyranoside]
recruitment of rolling leukocytes / leukocyte rolling (rolling leukocytes): inhibited leukocyte rolling | inhibition of binding of HL-60 cells to recombinant E-selectin (recombinant E-selectin): inhibition of binding of HL-60 cells to recombinant E-selectin in a concentration dependent manner

NeuAcα2,3Galβ1,4(Fucα1,3)GlcNAcβ1,3Galβ--
inhibitory effect relative to the tetrasaccharide (selectin): substantially more inhibitory effect than the tetrasaccharide
